What follows are compounds tested against human A2A receptor (Homo sapiens (Human), UniProt P29274) (assay: A2A competition binding assay using Scintillation Proximity technology). Conditions: 0.25 μg of membranes from HEK293 cells expressing the human A2a receptor per well; 0.5 nM tritiated radioligand; Cheng-Prusoff.
Chain of human A2A receptor (P29274 whole entry): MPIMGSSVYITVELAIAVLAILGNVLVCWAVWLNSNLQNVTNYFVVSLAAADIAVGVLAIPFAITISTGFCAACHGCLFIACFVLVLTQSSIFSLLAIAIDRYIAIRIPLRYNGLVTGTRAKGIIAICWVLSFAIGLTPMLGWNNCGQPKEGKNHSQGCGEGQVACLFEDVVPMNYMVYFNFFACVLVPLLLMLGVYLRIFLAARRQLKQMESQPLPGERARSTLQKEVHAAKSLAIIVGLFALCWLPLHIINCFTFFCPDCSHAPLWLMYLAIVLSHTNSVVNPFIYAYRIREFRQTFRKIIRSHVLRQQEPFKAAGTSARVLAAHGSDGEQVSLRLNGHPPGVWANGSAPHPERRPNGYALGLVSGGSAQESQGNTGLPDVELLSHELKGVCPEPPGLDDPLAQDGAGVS
Experimental: Binding affinities of compounds of the invention for the human A2A receptor were determined in a competition binding assay using Scintillation Proximity technology. Thus, 1^μg (^ denotes 1 μg of membrane/well), or preferably 0.25 μg of membranes from HEK293 cells expressing the human A2a receptor were incubated with a compound of the invention at concentrations ranging from 3000 nM to 0.15 nM in a reaction mixture containing also 0.5 nM of a tritiated form of 5-amino-7-[2-phenethyl]-2-(furan-2-yl)-7H-pyrazolo[4,3-e][1,2,4]triazolo[1,5-c]pyrimidine (the tritiated compound) and 25 μg of wheat germ agglutin-coated yttrium silicate SPA beads for one hour at room temperature with agitation. The beads were then allowed to settle to the bottom of the wells for 1 hr, after which the membrane-associated radioactivity was determined by scintillation counting in a TopCount microplate reader. Ki values were determined using the Cheng-Prusoff equation.
HEK293 cells expressing the human, rat, dog or monkey adenosine 2a receptor (Purchased from Perkin-Elmer # RBHA2AM400UA).
The Tritiated compound was prepared in-house by MRL Radiochemistry according to published methods.
Wheat germ agglutinin-coated yttrium silicate SPA beads (GE Healthcare #RPNQ0023). Dilute to 25 mg/mL in assay buffer.
Assay Buffer was prepared in house: Dulbecco's calcium and magnesium free phosphate buffered saline+10 mM MgCl2
Adenosine deaminase from calf intestine, 10 mg/2 mL (Roche #10 102 105 001).
A2A antagonist standard (9-chloro-1-(2-furanyl)-[1,2,4]triazolo[1,5-c]quinazolin-5-amine from Tocris Bioscience)
Make eight 1:3 serial dilutions in 100% DMSO from a 3 mM compound stock
Transfer 50 nL of compound into a 384-well OptiPlate (Perkin Elmer).
Typically, final concentrations of compound used in the assay ranged from 3000 nM to 0.152 nM.
Dilute a solution of the Tritiated compound to 1.25 nM in assay buffer. This a 2.5× solution. The final concentration in the assay is 0.5 nM. Calculate the concentration by counting two 5 μL aliquots.
Use *1 ug or preferrably 0.25 ug of membrane/well. Dilute membranes to 9.7 μg/ml in assay buffer. Treat with 20 ug/ml adenosine deaminase (ADA) for 15 minutes at room temperature to degrade endogenous adenosine.
Use 25 μg/well wheat germ agglutinin-coated yttrium silicate SPA beads.
Mix ADA-treated membranes and SPA beads together for 30 min prior to assay.
To the Perkin-Elmer Optiplate-384 containing the compound titration add 20 μL of 2.5× solution of the Tritiated compound and 30 μL of the membrane-bead mixture. Incubate for one hour at room temperature with agitation.
Include total binding (assay buffer+1% DMSO) and non-specific binding (CGS15943, 1 μM) wells.
Allow the beads to settle for one hour.
A curve fitting program (i.e., Prism, Activity Base, Chemcart) is used to determine the EC50. The Ki value is calculated using the Cheng-Prusoff equation. Ki=EC50/(1+(radioligand concentration/Kd)) Counting and Calculations
Counting and calculations were performed as described within the “A2A Activity Binding of Compounds of the Invention” section. Using the foregoing methods, the following results were obtained using compounds of the invention described herein. Each example compound tested is reported in the following format: Example number: A2A Ki (nM) selectivity.
In the case of COc1cccc2c1nc(N)n1nc([C@@H]3CCCN(CCC(F)(F)F)C3)nc21 [Example 1, (R)-7-methoxy-2-(1-(3,3,3-trifluoropropyl)piperidin-3-yl)-[1,2,4]triazolo[1,5-d]quinazolin-5-amine], the Ki is reported as 0.6 nM.
With COc1cccc2c1nc(N)n1nc([C@@H]3CCCN(CC(C(F)(F)F)C(F)(F)F)C3)nc21 [Example 2, (R)-7-methoxy-2-(1-(3,3,3-trifluoro-2-(trifluoromethyl)propyl)piperidin-3-yl)-[1,2,4]triazolo[1,5-c]quinazolin-5-amine] the Ki was 0.3 nM.
With COc1cccc2c1nc(N)n1nc([C@@H]3CCCN(CC(F)F)C3)nc21 [Example 3, (R)-2-(1-(2,2-difluoroethyl)piperidin-3-yl)-7-methoxy-[1,2,4]triazolo[1,5-c]quinazolin-5-amine] the Ki was 0.4 nM.
COc1cccc2c1nc(N)n1nc([C@@H]3CCCN(CCN(C)C)C3)nc21 [Example 4, (R)-2-(1-(2-(dimethylamino)ethyl)piperidin-3-yl)-7-methoxy-[1,2,4]triazolo[1,5-c]quinazolin-5-amine] gave a Ki of 5.4 nM.
In the case of COCCN1CCC[C@@H](c2nc3c4cccc(OC)c4nc(N)n3n2)C1 [Example 6, (R)-7-methoxy-2-(1-(2-methoxyethyl)piperidin-3-yl)-[1,2,4]triazolo[1,5-c]quinazolin-5-amine], the Ki is reported as 3.1 nM.
With COc1cccc2c1nc(N)n1nc([C@@H]3CCCN(CC4(C)CC4)C3)nc21 [Example 10, (R)-7-methoxy-2-(1-((1-methylcyclopropyl)methyl)piperidin-3-yl)-[1,2,4]triazolo[1,5-c]quinazolin-5-amine] the Ki was 20 nM.
With COc1cccc2c1nc(N)n1nc([C@@H]3CCCN(CCC(F)(F)C(F)(F)F)C3)nc21 [Example 11, (R)-7-methoxy-2-(1-(3,3,4,4,4-pentafluorobutyl)piperidin-3-yl)-[1,2,4]triazolo[1,5-c]quinazolin-5-amine] the Ki was 0.4 nM.
COc1cccc2c1nc(N)n1nc([C@H]3CCCN(CCC(F)(F)F)C3)nc21 [Example 12, (S)-7-methoxy-2-(1-(3,3,3-trifluoropropyl)piperidin-3-yl)-[1,2,4]triazolo[1,5-c]quinazolin-5-amine] gave a Ki of 14 nM.
Compound COc1cccc2c1nc(N)n1nc([C@@H]3CCCNC3)nc21 [Example 13, (R)-7-methoxy-2-(piperidin-3-yl)-[1,2,4]triazolo[1,5-c]quinazolin-5-amine] has a Ki of 93 nM.
For COc1cccc2c1nc(N)n1nc([C@@H]3CCCN(CCC4CC4)C3)nc21 [Example 14, (R)-2-(1-(2-cyclopropylethyl)piperidin-3-yl)-7-methoxy-[1,2,4]triazol[1,5-c]quinazolin-5-amine], the Ki was 6.9 nM.
COc1cccc2c1nc(N)n1nc([C@@H]3CCCN(CCN4CCOCC4)C3)nc21 [Example 15, (R)-7-methoxy-2-(1-(2-morpholinoethyl)piperidin-3-yl)-[1,2,4]triazolo[1,5-c]quinazolin-5-amine] was tested, and the Ki was 1.5 nM.
COc1cccc2c1nc(N)n1nc([C@@H]3CCCN(CC4CC(F)(F)C4)C3)nc21 [Example 17, (R)-2-(1-((3,3-difluorocyclobutyl)methyl)piperidin-3-yl)-7-methoxy-[1,2,4]triazolo[1,5-c]quinazolin-5-amine] showed a Ki of 0.7 nM.
COc1cccc2c1nc(N)n1nc([C@@H]3CCCN(CC4(C)COC4)C3)nc21 [Example 18, (R)-7-methoxy-2-(1-((3-methyloxetan-3-yl)methyl)piperidin-3-yl)-[1,2,4]triazolo[1,5-d]quinazolin-5-amine] gave a Ki of 3 nM.
Compound COc1cccc2c1nc(N)n1nc([C@@H]3CCCN(CC(F)(F)F)C3)nc21 [Example 23, (R)-7-methoxy-2-(1-(2,2,2-trifluoroethyl)piperidin-3-yl)-[1,2,4]triazolo[1,5-c]quinazolin-5-amine] has a Ki of 0.8 nM.
Work on Nc1nc2c(OC(F)F)cccc2c2nc([C@@H]3CCCN(CC(F)F)C3)nn12 [Example 25, (R)-2-(1-(2,2-difluoroethyl)piperidin-3-yl)-7-(difluoromethoxy)-[1,2,4]triazolo[1,5-c]quinazolin-5-amine] yielded a Ki of 1.2 nM.
Compound Nc1nc2cc(Cl)ccc2c2nc([C@@H]3CCCN(CC(F)F)C3)nn12 [Example 26, (R)-8-chloro-2-(1-(2,2-difluoroethyl)piperidin-3-yl)-[1,2,4]triazolo[1,5-c]quinazolin-5-amine] has a Ki of 1.3 nM.
Nc1nc2ccccc2c2nc([C@@H]3CCCN(CC(F)F)C3)nn12 [Example 28, (R)-2-(1-(2,2-difluoroethyl)piperidin-3-yl)-[1,2,4]triazolo[1,5-c]quinazolin-5-amine] was tested, and the Ki was 11 nM.
Compound CCC(C)(C)N1CCC[C@@H](c2nc3c4cccc(OC)c4nc(N)n3n2)C1 [Example 31, (R)-7-methoxy-2-(1-(tert-pentyl)piperidin-3-yl)-[1,2,4]triazolo[1,5-c]quinazolin-5-amine] has a Ki of 33 nM.

Same assay, conditions: values marked ^: 1 μg of membrane/well (HEK293 cells expressing the human A2a receptor); 0.5 nM tritiated radioligand; Cheng-Prusoff
CCN1CCC[C@@H](c2nc3c4cccc(OC)c4nc(N)n3n2)C1 [Example 5, (R)-2-(1-ethylpiperidin-3-yl)-7-methoxy-[1,2,4]triazolo[1,5-c]quinazolin-5-amine] was tested, and the Ki was 34 nM.
CCCCN1CCC[C@@H](c2nc3c4cccc(OC)c4nc(N)n3n2)C1 [Example 7, (R)-2-(1-butylpiperidin-3-yl)-7-methoxy-[1,2,4]triazolo[1,5-c]quinazolin-5-amine] gave a Ki of 29 nM.
For COc1cccc2c1nc(N)n1nc([C@@H]3CCCN(CC(C)C)C3)nc21 [Example 8, (R)-2-(1-isobutylpiperidin-3-yl)-7-methoxy-[1,2,4]triazolo[1,5-c]quinazolin-5-amine], the Ki was 45 nM.
For C#CC(C)(C)N1CCC[C@@H](c2nc3c4cccc(OC)c4nc(N)n3n2)C1 [Example 9, (R)-7-methoxy-2-(1-(2-methylbut-3-yn-2-yl)piperidin-3-yl)-[1,2,4]triazolo[1,5-c]quinazolin-5-amine], the Ki was 20 nM.
Compound COc1cccc2c1nc(N)n1nc([C@@H]3CCCN(CCCC(F)(F)F)C3)nc21 [Example 16, (R)-7-methoxy-2-(1-(4,4,4-trifluorobutyl)piperidin-3-yl)-[1,2,4]triazolo[1,5-c]quinazolin-5-amine] has a Ki of 7.6 nM.
COc1cccc2c1nc(N)n1nc([C@@H]3CCCN(c4nnc(C)s4)C3)nc21 [Example 19, (R)-7-methoxy-2-(1-(5-methyl-1,3,4-thiadiazol-2-yl)piperidin-3-yl)-[1,2,4]triazolo[1,5-c]quinazolin-5-amine] showed a Ki of 2 nM.
With COc1cccc2c1nc(N)n1nc([C@@H]3CCCN(c4nncs4)C3)nc21 [Example 20, (R)-2-(1-(1,3,4-thiadiazol-2-yl)piperidin-3-yl)-7-methoxy-[1,2,4]triazolo[1,5-c]quinazolin-5-amine] the Ki was 1.9 nM.
Compound COc1cccc2c1nc(N)n1nc([C@@H]3CCCN(c4ncns4)C3)nc21 [Example 21, (R)-2-(1-(1,2,4-thiadiazol-5-yl)piperidin-3-yl)-7-methoxy-[1,2,4]triazolo[1,5-c]quinazolin-5-amine] has a Ki of 3.2 nM.
Work on COc1cccc2c1nc(N)n1nc([C@@H]3CCCN(c4ncc(C)s4)C3)nc21 [Example 22, (R)-7-methoxy-2-(1-(5-methylthiazol-2-yl)piperidin-3-yl)-[1,2,4]triazolo[1,5-c]quinazolin-5-amine] yielded a Ki of 0.8 nM.
For COc1cccc2c1nc(N)n1nc([C@@H]3CCCN(S(=O)(=O)c4ccccc4)C3)nc21 [Example 36, (R)-7-methoxy-2-(1-(phenylsulfonyl)piperidin-3-yl)-[1,2,4]triazolo[1,5-c]quinazolin-5-amine], the Ki was 1.2 nM.
Compound COc1cccc2c1nc(N)n1nc([C@@H]3CCCN(C(=O)c4ccccc4)C3)nc21 [Example 37, (R)-(3-(5-amino-7-methoxy-[1,2,4]triazolo[1,5-c]quinazolin-2-yl)piperidin-1-yl)(phenyl)methanone] has a Ki of 1.3 nM.
With COc1cccc2c1nc(N)n1nc([C@@H]3CCCN(C(=O)C(C)(C)C)C3)nc21 [Example 38, 2-((3R)-1-(2,2-dimethylpropanoyl)piperidin-3-yl)-7-methoxy[1,2,4]triazolo [1,5-c]quinazolin-5-amine] the Ki was 4.4 nM.
